Target: Aβ (1-42) (Homo sapiens, UniProt P05067)
Test: Thioflavin T fluorescence anti-aggregation assay with […] Aβ
Format: biochemical

Aβ (1-42), sequence (P05067 672-713): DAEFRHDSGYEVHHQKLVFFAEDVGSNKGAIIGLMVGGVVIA

IC50: 8.01 ± 0.5 µM
Compound: O=c1oc2c(O)c(O)cc3c(=O)oc4c(O)c(O)cc1c4c23 [EA, Ellagic acid]
